Active and inactive are the calls of the source.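 Rule for the calls: active = fitted curve crossing a set activation limit at or below the highest valid dose tested; inconclusive = flat fit at 30 to 70% activation, or poor fit; inactive = the rest, including signal decreases.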
test system: D54 ERlucT glycosylation luciferase reporter, luminescence, 24 h; assay: blockers of NLG process in reporter cells – D54 ERlucT cells, luminescence, cherry-picks, dose response (AID 624491);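 note: signal gain reflects blocked N-linked glycosylation of a luciferase reporter; actives raise luciferase signal so AC26 marks activators of the reporter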

| SMILES | AC26 |
| --- | --- |
| Cc1cc(=O)n2c3c(c4c(cc13)c(CN(C)C)cc(=O)n4C)OC2 | 3030 nM |
| OCC1OC(n2ccc3c(SCc4ccccc4)ncnc32)C(O)C1O (stereo not drawn) | 332 nM |
| Cc1ccc(S(=O)(=O)c2cc3c(=O)n4ccccc4nc3n(CCc3ccccc3)c2=N)cc1 | 84.5 nM |
| CCCCCCCCCCCCCCCCCCNc1ccn(C2OC(COP(=O)(O)OCC3OC(n4cc(F)c(=O)[nH]c4=O)CC3O)C(O)C2O)c(=O)n1 (stereo not drawn) | 3970 nM |
| COc1cccc(OCC(O)CN2CCN(CCN3C(=O)c4cccc5cccc(c45)C3=O)CC2)c1 (stereo not drawn) | 4250 nM |
| O=C(NCCN1C(=O)S/C(=C\c2ccc(Cl)cc2Cl)C1=O)C1=COCCO1 | > 19500 nM (inactive) |
| CCOC(=O)c1ccc(N=c2sc(C(=O)OC)cc(=O)n2Cc2ccco2)cc1 | 3830 nM |
| Cc1cc(C)nc(/N=C(\N)Nc2ccc(OCc3ccccc3)cc2)n1 | 8.88 nM |
| CCN1C(=O)Nc2cccc3cccc1c23 | 3360 nM |
| Cc1ccc(-c2nn3c(C)nnc3s2)cc1NCc1c(F)cccc1Cl | 7650 nM |
| COc1ccc(NC(=O)C2(C)Cc3c(-c4cccc(NC(C)=O)c4)ccnc3O2)cn1 (stereo not drawn) | 10100 nM |
| Cc1ccc2nsnc2c1NC(=O)c1ccc(-c2cc(Cl)ccc2Cl)o1 | 846 nM |
| Cn1nc(C(F)(F)F)c(/C=N/OC(=O)c2ccccc2Cl)c1SCc1ccccc1Cl | 817 nM |
| C=CCOc1ccccc1C(=O)/C=C1/C(=O)Nc2ccccc21 | 3000 nM |
| COc1ccc(C(=O)CSc2nn3c(=O)c(C(C)(C)C)nnc3s2)cc1 | 3870 nM |
| O=C(OCn1ncc(Cl)c(Cl)c1=O)c1ccc(C(F)(F)F)cc1 | 1130 nM |
| CCC(Cc1ccccc1)NC(=O)c1ccc2nc(N3CCOCC3)sc2c1 (stereo not drawn) | 1250 nM |
| O=C1[C@@H]2Cc3c([nH]c4ccccc34)C(c3ccc([N+](=O)[O-])cc3)N2C(=O)CN1C1CC1 (stereo partly drawn) | 11500 nM |
| CC(C)(C)c1ccc(OCC(=O)Nc2ccncc2)c(Br)c1 | 4130 nM |
| COc1ccc(S(=O)(=O)NCc2ccccn2)cc1NC(=O)c1ccccc1F | 1200 nM |
| COCCNC(=O)c1cc(-c2ccccc2OC)on1 | 9620 nM |
| COc1ccc2cc(C)c3nnc(SCC(=O)Nc4nc(-c5ccc(F)cc5)cs4)n3c2c1 | 2360 nM |

| SMILES | AC26 |
| --- | --- |
| O=C(N/N=C/C(Br)=C/c1ccccc1)c1cc(-c2ccco2)[nH]n1 | 5350 nM |
| Cc1cccc2sc(NC(=O)c3cc(S(=O)(=O)N(C)C)ccc3N3CCCC3)nc12 | 157 nM |
| COc1cc(C2Sc3ccccc3NC3=C2C(=O)OC3)cc(OC)c1OC (stereo not drawn) | 12300 nM |
| C#CC[N+](C)(C)CCCCCCCCC | 6070 nM |
| COc1ccc(C(=O)/C=C2/C(=O)Nc3ccccc32)cc1OC | 714 nM |
| CC(=O)Nc1ccc(CC(=O)NCCC(c2ccccc2)c2ccccc2)cc1 | 11300 nM |
| CCOc1ccc(C(=O)n2cc(C(=O)OC)c3ccccc32)cc1 | > 19500 nM (inactive) |
| CN(C)c1ccc(-c2ccnc3c2CC(C)(C(=O)NCc2ccccc2)O3)cc1 (stereo not drawn) | 5530 nM |
| COc1cccc(C(N)c2nc(-c3csc4ccccc34)cs2)c1 (stereo not drawn) | 3590 nM |
| Cc1cccc(CCNC(=O)CCCOc2cc(=O)n(C)c3ccccc23)c1 | 4450 nM |
| CCOC(=O)C1=CC[C@@H](c2ccncc2)N(S(=O)(=O)c2ccc(C)cc2)C1 | 12100 nM |
| COc1ccc(OC(=O)N2C/C(=C/c3ccccc3)C(=O)/C(=C\c3ccccc3)C2)cc1 | 299 nM |
| O=C(NCc1cccs1)C1CC(c2ccc(Cl)c(Cl)c2)=NO1 (stereo not drawn) | 5400 nM |
| CC(C)Oc1ccccc1C1CC(=O)Nc2cc3c(cc21)OCCO3 (stereo not drawn) | 844 nM |
| COc1ccc(-c2nc(NCCCN(C)C)c3ccccc3n2)cc1 | 2490 nM |
| COc1ccc(CCn2c(=N)c(C(=O)NCc3ccco3)cc3c(=O)n4ccccc4nc32)cc1 | 2810 nM |
| COc1ccc(C(=O)/C=C\c2ccc(NC(=O)c3cccs3)cc2)cc1 | 2000 nM |
| O=C(NCc1cccs1)C1Cc2c(-c3ccc(Cl)cc3)ccnc2O1 (stereo not drawn) | 1670 nM |
| c1ccc(CNc2ncnc3c2cnn3-c2ccccc2)cc1 | 8130 nM |
| COc1cc2c(cc1OC)C(c1ccccc1)N(C(=O)c1ccccc1F)CC2 (stereo not drawn) | 1100 nM |
| CC1(C)Cc2nc3sc4c(SCC(=O)NCc5ccccc5)ncnc4c3cc2CO1 | 160 nM |
| CCN1C(=O)c2cccc3c(S(=O)(=O)N4CCC(C)CC4)ccc1c23 | 1720 nM |

| SMILES | AC26 |
| --- | --- |
| CCOc1nc(N=C(N)N)nc2c(C)cccc12 | 2480 nM |
| COc1ccccc1OCC(=O)N/N=C/C=C/c1ccc([N+](=O)[O-])o1 | 432 nM |
| CC(C)n1c(/C=C/[C@H](O)C[C@H](O)CC(=O)O)c(-c2ccc(F)cc2)c2ccccc21 | 77.8 nM |
| O=C(Nc1ccccc1)N(CCN1CCOCC1)Cc1ccccc1F | 1360 nM |
| COc1cc(OC)c(C2=NOC(C(=O)NCc3cccs3)C2)cc1Cl (stereo not drawn) | 5250 nM |
| COc1ccc(Cl)cc1NC(=O)CN(C)CC(=O)Nc1cc(OC)c(OC)c(OC)c1 | 10200 nM |
| CC(=O)Nc1cccc(-c2ccnc3c2CC(C)(C(=O)NCCc2ccccc2)O3)c1 (stereo not drawn) | 1370 nM |
| Cc1ccc2c(CC(=O)NCc3ccco3)coc2c1C | 7380 nM |
| Cn1nc(-c2ccc(N3CCOCC3)c(NS(=O)(=O)c3ccccc3)c2)c2ccccc2c1=O | 6110 nM |
| c1ccc(CNc2nc(NCCc3ccncc3)c3sccc3n2)cc1 | 1120 nM |
| CC(C)CCN(C(=O)Cc1ccc(Cl)c(Cl)c1)c1c(N)n(Cc2ccccc2)c(=O)[nH]c1=O | 2080 nM |
| Cc1cc(NS(=O)(=O)c2ccc(NC(=O)COc3c(C)cc(Br)cc3C)cc2)no1 | 550 nM |
| Cc1ccc(C2=NN(C(=O)CSc3nccn3C)C(c3ccco3)C2)cc1 (stereo not drawn) | 6070 nM |
| CCOC(=O)[C@H]1[C@H]2COc3ccc(Br)cc3[C@@H]2N2C(=O)c3cc(OC)c(OC)cc3NC(=O)[C@@]12C | 4040 nM |
| Cc1noc2ncnc(Sc3ccccc3Cl)c12 | 12500 nM |
| COc1cc(C2=NOC(C(=O)NCc3ccco3)C2)cc(OC)c1OC (stereo not drawn) | 1030 nM |
| Nc1nonc1C(=O)N/N=C/c1ccc([N+](=O)[O-])o1 | 6160 nM |
| CCc1ccc(Nc2n[n+](-c3ccccc3)c(-c3ccc(N(CC)CC)cc3)s2)cc1 | 7030 nM |
| Cc1ccc(-c2nc(C(=O)NCCCN(C)C)cc3c2[nH]c2ccccc23)cc1 | 4300 nM |
| CCCn1c(CN2CCN(C(=O)OCC)CC2)nc2cc(NC(=O)CC)ccc21 | 9150 nM |
| O=C(Oc1ccccc1C(=O)Nc1ccccc1)c1ccccc1Br | 1670 nM |
| c1ccc2c(c1)nc(N1CCOCC1)c1c3ccccc3[nH]c21 | 7170 nM |

| SMILES | AC26 |
| --- | --- |
| COC(=O)c1sc(N)c(C(=O)OC)c1COC(=O)c1c(C)noc1C | 2130 nM |
| COc1ccc(CCn2c(=N)c(C(=O)NCCN3CCOCC3)cc3c(=O)n4cccc(C)c4nc32)cc1OC | 739 nM |
| COc1ccc(/C=N\NC(=O)c2ccccc2F)cc1COc1ccc(F)cc1F | 3550 nM |
| Cc1nc([N+](=O)[O-])c(Sc2nc3ccccc3[nH]2)n1Cc1ccccc1 | 8510 nM |
| Cc1ccc(NC(=O)c2cc(S(=O)(=O)N(C)C)ccc2N2CCCC2)cc1F | 109 nM |
| Cc1ccc(NC(=O)c2cc(S(=O)(=O)N(C)C)ccc2N2CCCC2)cc1S(=O)(=O)N(C)C | 276 nM |
| O=C1CCNc2cc3ccccc3cc21 | 32.5 nM |
| Cc1cccc(N2CCN(C(=O)c3cc(S(=O)(=O)N4CCCC4)cn3C)CC2)c1C | 2050 nM |
| Cc1nc2c3cc(Cl)ccc3n(CCN3CCCCC3)c2s1 | 896 nM |
| COc1ccccc1N1CCN(C(=O)c2[nH]c(C(F)(F)F)nc2-c2ccccc2)CC1 | 2770 nM |
| O=C(N/N=C/c1ccco1)c1ccccc1OCc1ccccc1Cl | 1010 nM |
| Cc1ccc(C(=O)c2cc([N+](=O)[O-])ccc2N2CCOCC2)cc1C | 168 nM |
| Cc1ccc(C(=O)N2C(CC(=O)Nc3ccc(Cl)cc3)C(=O)NC3CCCCC32)cc1 (stereo not drawn) | 12600 nM |
| O=C(Cn1cnc2c(NCc3ccccc3)ncnc21)NCc1ccccc1 | 1760 nM |
| NC(=O)COc1ccc(C(=O)/C=C2/C(=O)Nc3ccccc32)cc1 | 3180 nM |
| COc1ccc(NC(=O)C2Cc3c(-c4cccc(NC(C)=O)c4)ccnc3O2)cc1 (stereo not drawn) | 1560 nM |
| CC1=CC(C)[C@H](/C=N/n2c(=O)[nH]c3c([nH]c4ccc(Br)cc43)c2=O)C(C)C1 (stereo partly drawn) | 3780 nM |
| CCOc1cc(NC(=O)CCl)c(OCC)cc1NC(=O)CCl | 1690 nM |
| COc1cc(/C=N/NC(=O)c2ccc(-c3ccccc3)cc2)cc(OC)c1OC | 1350 nM |
| COc1ccc(C(=O)/C=C/c2ccccc2)c(O)c1 | 1520 nM |
| CN(C)CCNc1ccc2nnn3c4ccc(O)cc4c(=O)c1c23 | 52 nM |
| O=C(Nc1cccc(-n2cnnn2)c1)c1cc(Cl)ccc1Cl | 4570 nM |

| SMILES | AC26 |
| --- | --- |
| CCOc1cc(CNc2ccc3cn[nH]c3c2)ccc1OC | 1550 nM |
| COC(=O)c1cc(=O)n(-c2ccc(F)cc2)c(=Nc2ccc(F)cc2)s1 | 4230 nM |
| Cc1noc(C)c1COc1ccc(C(=O)NNC(=O)c2ccccc2F)cc1 | 33.4 nM |
| COc1ccc(C2(CNC(=O)c3cc(OC)c(OC)c(OC)c3)CCCC2)cc1OC | 3140 nM |
| CCN(CC)CCCNC(=O)CSc1c2c(nc3cc(Cl)ccc13)CCCC2 | 11400 nM |
| COc1cc(NC(=O)CN2c3cccc4cccc(c34)S2(=O)=O)cc(OC)c1OC | 1770 nM |
| COc1cccc2nc3c(C(=O)NCCN(C)C)cccc3cc12 | 164 nM |
| COc1ccc(N2CCc3c(C)nc4c(OC)cc(OC)cc4c32)cc1 | 3770 nM |
| COC(=O)c1ccc2c(=O)n(Cc3ccco3)c(SCC(=O)Nc3cc(C)on3)nc2c1 | 2190 nM |
| COc1cc(/C=N/Nc2nc3c(c(=O)n(C)c(=O)n3C)n2Cc2ccccc2)ccc1OC(=O)c1ccco1 | 10500 nM |
| O=C1CCCN1c1ccc(S(=O)(=O)Nc2ccc3c(c2)OCCO3)cc1 | 9890 nM |
| COc1cc2[nH]c(C(=O)Nc3ccc(F)cc3)cc2c(OC)c1OC | 742 nM |
| CCn1c(=O)c([N+](=O)[O-])c(Cl)c2ccccc21 | 1390 nM |
| COc1ccc(OC)c(Nc2cc3ccccc3c(=O)[nH]2)c1 | 207 nM |
| COc1ccc(Nc2nc(-c3c(C)nc4ncccn34)cs2)cc1 | 17.2 nM |
| COc1ccc2c(c1)[C@H]1[C@H](CO2)[C@H](c2ccccc2)[C@]2(C)C(=O)Nc3cc(F)c(F)cc3C(=O)N12 | 544 nM |
| Cc1cc(NC(=O)CN2C(=O)NC3(CCCCCC3)C2=O)ccc1Br | 1570 nM |
| O=C1NC[C@H](Cc2ccccc2)N(C[C@H]2CCCN2C[C@H](Cc2ccccc2)N2C[C@H](Cc3ccc(O)cc3)N(CCc3ccccc3)C(=O)C2=O)C1=O | 5790 nM |
| O=C(CC1Sc2ccccc2NC1=O)NNc1ccc(Cl)c(Cl)c1 (stereo not drawn) | 2840 nM |
| Cn1nc(-c2ccccc2)c(CSc2ccccc2Cl)c1Cl | 6120 nM |

From PubChem BioAssay AID624491 (Broad Institute, 2012)
